{
  "source": "patent US12138266B2",
  "about": "“Folate preparations” (APROFOL AG, priority 2018, dated 2024)",
  "key": {"[1]": {"tested_on": "primary keratinocytes of human skin", "conditions": "keratinocyte monolayer, MTT, 24 h; concentration based on the undiluted solution (2.5%) or the cream (=100%)", "method": "In a preliminary experiment, the usable dose was determined.\nFor this test, the keratinocytes were seeded on 96-well plates and incubated with five dilutions of the solutions or the cream for 24 h. Subsequently, a vital dye was added and finally, the colour change caused by the conversion of the vital dye in living cells was photometrically quantified.\nFIG. 1 and FIG. 2 show the determination of the usable dosage of the test substances. Cytotoxicity test with keratinocytes in monolayer culture after conversion of the vital dye MTT by living cells. The concentration data are based on the undiluted solutions or the cream (=100%). Treatment time=24 h. Untreated cultures served as negative controls. SDS served as a positive control (“dead control”). N=6+SEM\nIC70 values were calculated by nonlinear regression (Hill Slope, GraphPad Prism 5.04). The term IC70 denotes the concentration at which the viability of the treated cell culture is reduced to 70% of the untreated control. IC70 is often referred to as the border between toxicity and non-toxic effect."}, "human skin": {"tested_on": "human skin", "assay": "Skin penetration determined by Raman spectroscopy on forearm of a subject", "assay_type": "in vivo", "conditions": "for Calcium levoleucovorin penetrated into the skin per area: surface to depth of 30 μm", "method": "In a further experiment it was examined if calcium levoleucovorin is able to penetrate skin. Penetration depth was determined by way of Raman spectroscopy. The measurement device was an inverse Raman microscope model 3510 with 60× oil immersion lens and evaluation software SkinTools of the company RiverD Rotterdam and the method were 10 profiles per application, measuring time of 5 seconds per measuring point, 7 steps of 2 μm, 4 steps of 4 μm, spectral range of 400-1800 cm^−1, at a laser excitation wavelength of 785 nm. Signals were generated with the software SkinTools that contains various skin and device specific spectra. The user can add their own spectra to the library. The evaluation is carried out via the CLS procedure (least squares method). The signals are output as a fit coefficient normalized to the fit coefficient of keratin.\nFor a quantitative indication of the result, a calibration must be carried out with standard series (see Tab. 1 and Tab. 2). First, the sensitivity of bovine serum albumin (BSA) is determined and the mass concentration BSA in g/ml is plotted against the BSA fit coefficient. A linear regression with fixed zero gives slope S. For the active substance, the molar concentration in mmol/ml is plotted against the drug coefficient multiplied by the BSA fit coefficient. This gives the slopes SA of the active ingredient. With the slopes, a so-called quantification factor of the drug can be created (SA/S=C). Multiplied by the factor C, the coefficient of fit of the active substance becomes the quantified value with the unit mmol/g of keratin.\nThe application of the drug or placebo (sodium gluconate) to the skin of a subject was done as follows: 20 μL was pipetted into an allergy patch and this was then stuck onto the forearm of a subject for a period of 30, 60, 120 and 240 minutes. At the end of the application time, the allergy patch was removed. Prior to determining the Raman profiles, the treated skin area was rubbed with a dry paper towel."}, "[2]": {"tested_on": "reconstructed skin models (epiCS)", "assay": "Bioavailability: transport through reconstructed skin models into basal compartment (LC/MS)", "assay_type": "in vitro ADME, human", "text": "In order to test the bioavailability in tissues such as skin, reconstructed skin models (epiCS, CS-1001, CellSystems, Troisdorf) were used which are generated from primary human keratinocytes. These models show a barrier very similar to human skin. They are regularly used as test models for the approval-relevant determination of corrosive or irritating effects of cosmetic raw materials. The skin models can usually be treated with finished products, as they are intended for use by the consumer. Nevertheless, before the skin models are treated with the test products, an assessment of the tolerability of the models is made to avoid overdosing.\nThe skin models were cultured on a porous membrane as mentioned above. The skin cells growing on it separate an apical compartment (with the skin model) from a basal compartment (with the nutrient medium). Mass transport from the apical to the basal compartment is thus almost exclusively possible through the cells. The only alternative to this is paracellular diffusion, which however, due to the functional tight junctions, is only possible for a few molecules and to a very limited extent. To determine the bioavailability of the products, the barrier is checked for leaks before use by means of resistance measurements. […] Suitable skin models are then treated topically with the test products. After 4 h, 8 h and 24 h, samples of the medium were taken in the basal part of the models to check for the presence and concentration of folates. Each test product and controls are tested at a concentration of three replicates each. The studies were repeated to obtain results from two independent runs. The determination of the folate contents of the media samples was started with the analysis of the 24 h values.\nThe analysis of the media samples was carried out by way of a LC/MS method established at a commercial service provider. The sensitivity of the method is in the range of 1 nmol/L. Before the start of the investigations, an estimate of the feasibility or a preliminary test was carried out in order to be able to assess the suitability of the method.\nIn addition, the topically applied amount was reduced to 50 μL each. In addition, in the main experiment, the lower compartment was not filled with medium (contains folic acid) but with 1 mL Hank balanced salt solution (without folic acid). Following a total of 24 hours incubation with the test substances, the skin models were again incubated with Resazurin to. […] In the main trial, two independent passes were completed.\nIn the lower compartment, 1 mL each of HBSS was initially charged. The results shown in the figures mentioned above were determined from 100 μL aliquots of this buffer amount.\nIn the apical compartment, 3 μmol of folate (solutions) or 0.3 μmol of folate are supplemented (in 50 μL)."}, "[3]": {"tested_on": "primary keratinocytes of human skin", "assay": "Scratch Assay (in vitro wound healing model)", "assay_type": "cell-based", "conditions": "for free wound surface in photographs: 0.1%", "text": "To examine the effect of different folate preparations on wound healing the in vitro model Scratch Assay was employed. This in vitro model comprises the defined injuring of a closed cell layer and the subsequent regrowth of the cells to a closed layer in the presence of the test-substance compared to appropriate controls, i.e. (untreated) cells with no test-substance present.\nThe experimental procedure for the Scratch Assay was as follows: The employed cells are primary keratinocytes of human skin (C-12005, Promocell, Heidelberg, Germany). […] Three different dosages were then used for the Scratch Assay. Further, cells were cultivated in growth-limiting medium in order to show a possible growth promoting effect of the test substances. For the medium used (C-20011, Promocell, Heidelberg, Germany) a growth limitation could be achieved by either the omission or dilution of epidermal growth factor (EGF) or of a complex mixture of undefined factors derived from […] BPE). Usually, growth-limiting medium was achieved by the omission of EGF. For the actual Scratch Assay keratinocytes were cultivated in appropriate cell culture plates (6-well plates, 657160, Greiner BioOne, Frickenhausen, Germany) bearing position markings. Cells were grown to a closed monolayer. Then, cells were scratched with pipette tip along the position markings, thereby generating a cell free area (scratch, injury). Cell monolayers were washed to remove partially detached cells and then covered with medium comprising the test-substances in appropriate dosages. Regrowth of the cells into the cell free area was observed over time at 0 h, 6 h and 24 h and photographically documented at these times. Analysis was done by marking and calculating the cell-free area (software ImageJ) and comparing the calculated areas at the different time point. […]\nFIGS. 4 and 5 show the cell-free area of the induced scratch after 6 h or 24 h. The measured values were expressed as a percentage of the starting area of the respective treatment group. […]"}},
  "data": [
    {"compound": "5-formyl-(6S)-tetrahydrofolic acid calcium salt [L-FTHF Ca]", "values": [
      {"measurement": "IC70 (concentration at which viability is reduced to 70% of the untreated control; usable dose)", "setting": "[1]", "value": 0.13, "unit": "%"},
      {"measurement": "concentration profile in skin over application time", "setting": "human skin; 30 to 240 minutes application time", "value": "tendency to increased calcium levoleucovorin concentration both in the top 5 μm and deeper layers of the skin"},
      {"measurement": "Amount recovered", "setting": "human skin; application period 30 min", "value": "3.76 +/− 2.82 % of amount applied"},
      {"measurement": "Calcium levoleucovorin penetrated into the skin per area", "setting": "human skin; application period 30 min", "value": "0.37 +/− 0.27 μmol/cm^2"},
      {"measurement": "Amount recovered", "setting": "human skin; application period 60 min", "value": "3.28 +/− 2.58 % of amount applied"},
      {"measurement": "Calcium levoleucovorin penetrated into the skin per area", "setting": "human skin; application period 60 min", "value": "0.32 +/− 0.25 μmol/cm^2"},
      {"measurement": "Amount recovered", "setting": "human skin; application period 120 min", "value": "6.3 +/− 8.22 % of amount applied"},
      {"measurement": "Calcium levoleucovorin penetrated into the skin per area", "setting": "human skin; application period 120 min", "value": "0.62 +/− 0.8 μmol/cm^2"},
      {"measurement": "Amount recovered", "setting": "human skin; application period 240 min, listed as Calcium levoleucovorin, calcium salt", "value": "9.96 +/− 3.26 % of amount applied"},
      {"measurement": "Amount recovered", "setting": "human skin; application period 240 min, listed as calcium levoleucovorin, calcium salt", "value": "10 % of amount applied"},
      {"measurement": "Calcium levoleucovorin penetrated into the skin per area", "setting": "human skin; application period 240 min", "value": "0.97 +/− 0.32 μmol/cm^2"},
      {"measurement": "folic acid concentration (comparison with other skin models)", "setting": "[2]; after 24 h", "value": "twice as high"},
      {"measurement": "methylfolate concentration in basal compartment (comparison)", "setting": "[2]; after 24 h", "value": "relatively high"},
      {"measurement": "formylfolate concentration in basal compartment", "setting": "[2]; after 24 h, outside calibration line, absolute values uncertain", "value": 150, "unit": "µmol/L"},
      {"measurement": "folic acid (folate) concentration in basal compartment", "setting": "[2]; after 24 h supplementation", "value": "about 200 nmol/L"}
    ]},
    {"compound": "5-methyl-(6S)-tetrahydrofolic acid di choline salt [L-MTHF di choline]", "values": [
      {"measurement": "IC70 (concentration at which viability is reduced to 70% of the untreated control; usable dose)", "setting": "[1]", "value": 0.14, "unit": "%"},
      {"measurement": "methylfolate concentration in basal compartment (comparison)", "setting": "[2]; after 4 h, compared with models supplemented with L-FTHF or folate cream", "value": "significantly higher concentrations"},
      {"measurement": "formylfolate concentration in recipient compartment (basal)", "setting": "[2]; after 8 h", "value": "cannot be detected"},
      {"measurement": "methylfolate concentration in basal compartment (comparison)", "setting": "[2]; after 8 h", "value": "highest concentrations"},
      {"measurement": "formylfolate in basal compartment samples", "setting": "[2]; after 24 h", "value": "cannot be detected"},
      {"measurement": "methylfolate concentration in basal compartment (comparison)", "setting": "[2]; after 24 h", "value": "significantly higher than the highest standard"},
      {"measurement": "methylfolate concentration in basal compartment, maximum", "setting": "[2]; after 24 h, peak outside calibration line, absolute value uncertain", "value": 120, "unit": "µmol/L"},
      {"measurement": "free wound surface in photographs", "setting": "[3]; after 6 h", "value": "hardly any surface is overgrown"},
      {"measurement": "free wound surface in photographs", "setting": "[3]; after 24 h", "value": "it becomes difficult to mark a cell-free area"}
    ]},
    {"compound": "N=C(N)NCCC[C@H](N)C(=O)O.N=C(N)NCCC[C@H](N)C(=O)O.Nc1nc2c(c(=O)[nH]1)N(C=O)[C@@H](CNc1ccc(C(=O)N[C@@H](CCC(=O)O)C(=O)O)cc1)CN2", "note": "[L-FTHF di arginine, 5-formyl-(6S)-tetrahydrofolic acid di L-arginine salt]", "values": [
      {"measurement": "IC70 (concentration at which viability is reduced to 70% of the untreated control; usable dose)", "setting": "[1]", "value": 0.12, "unit": "%"},
      {"measurement": "methylfolate concentration in basal compartment (comparison)", "setting": "[2]; after 24 h", "value": "approximately half"},
      {"measurement": "regrowth of cells into cell-free area of scratch", "setting": "[3]; after 24 h, versus standard medium and FBS control", "value": "promoted dose-dependent reversal of “healing”"}
    ]}
  ]
}
